Results from paper PMC5441103, “Antiviral activity of phenanthrenes from the medicinal plant Bletilla striata against influenza A virus” (BMC Complementary and Alternative Medicine, 2017).
Several values for one entry are separate records, joined by “and”; a condition that tells them apart may be missing. Equal entries are not always repeated. Where two headings read alike, the source gives them in different places.

How the values were obtained:
[1] = molecular target: neuraminidase (NA) (Influenza A virus, UniProt Q80DL0); details: for IC50: read-out: NA inhibitory activity IC50
Method: The neuraminidase inhibition assay was used to evaluate the effects of each compound on the neuraminidase activity of the influenza virus, according to the instructions of the Neuraminidase Inhibitors Screen Kit (Beyotime, China). Inhibition = [(C− S) / (C − C 0)] × 100%, where C is the fluorescence of the control (enzyme, buffer, and substrate) after 30 min of incubation, and C 0 is the fluorescence of the control (buffer and substrate). S is the fluorescence of the tested samples (enzyme, sample solution, and substrate) after incubation. Standard curves were made by plotting the percentage of fluorescence inhibition relative to the activity of virus controls against the log2 of concentrations. In addition, 10 μg/mL oseltamivir phosphate was used as the positive control. Then, 10 μL of NA in 70 μL of reaction buffer was mixed with equal volumes of twofold dilutions of the compounds. After a 2-min incubation at 37 °C, equal volumes (10 μL) of the substrate solution [2-(4-methylumbelliferyl)-α-D-N-acetylneuraminic acid sodium (4-MU-NANA)] were added, and the mixtures were further incubated for 30 min at 37 °C. The fluorescence intensity was measured using a fluorescence plate reader at an excitation wavelength of 322 nm and an emission wavelength of 450 nm. The 50% inhibitory concentration (IC50) was calculated by regression analysis with r ^2 ≥ 0.9, representing the mean values of three independent experiments [13, 29].

[2] = tested on: MDCK cells; experiment: Cytotoxicity to MDCK cells (MTS-based assay); type: cell-based, canine; details: 48 h, read-out: CC50 (50% cytotoxic concentration)
Method: (§1) An MTS-based assay was performed to evaluate the cytotoxic effects of the test compounds on MDCK cells. Approximately 5 × 10^4 cells/well were seeded in 96-well microplates in MEM with 10% FBS at 37 °C in a humidified 5% CO2 incubator. When the monolayer was confluent, the cells were washed twice with PBS and then treated with compounds diluted in serum-free MEM. After incubation at 37 °C for 48 h, 20 μL of MTS was added to each well, and the cells were incubated for 2 h. The absorbance at 490 nm was determined using a microplate reader. The cell viability was calculated using the following formula: cell viability (%) = (drug treatment – background)/(control – background) × 100%. The half-maximal cytotoxic concentration (CC50) of the compounds was defined as the concentration that reduced the A490 of compound-treated cells to 50% of that of untreated cells.

[3] = tested on: influenza A/Sydney/5/97 (H3N2)
[4] = tested on: influenza viral matrix protein mRNA; type: cell-based, influenza virus
[5] = tested on: influenza virus A/Sydney/5/97 (H3N2); type: in vivo; details: for -log2 HA titer (mean ± SD): 9-day-old embryonated hen eggs, 100 EID50, 34 °C 48 h, allantoic fluid
[6] = tested on: influenza A/Sydney/5/97 (H3N2); experiment: microbe, parasite or virus in culture; details: H3N2, MDCK
[7] = Cytotoxicity to MDCK cells (MTS-based assay); type: cell-based, canine; details: dog, read-out: CC50 (50% cytotoxic concentration)
Method: as §1

[8] = tested on: hemagglutinin (HA); experiment: Hemagglutination inhibition assay (guinea pig RBC); details: 4 HAU virus, 1.5% guinea pig RBC
Method: The hemagglutination inhibition assay was used to study whether the compound could block the SA-containing receptors. The phenanthrenes from B. striata and oseltamivir phosphate were all tested Fresh guinea pig blood was collected at the Laboratory Animal Research Center of the Zhejiang Chinese Medical University, supplemented with 1.6% sodium citrate in sterile water. Then, red blood cells (RBC) were separated by centrifugation (800×g for 10 min at room temperature), washed three times with sterile PBS, and then suspended at a concentration of 1.5%. The least number of virus particles able to agglutinate the guinea pig RBC was determined in a serial virus dilution as four hemagglutination units (HAU). PBS instead of the compounds was used as the hemagglutinating positive control and no-virus RBC as the hemagglutinating negative control. Then, 50 μL of the compounds in serial twofold dilutions in PBS were mixed with 50 μL of 4 HAU influenza virus suspension, incubated for 1 h at 37 °C, mixed with an equal volume of 1.5% guinea pig RBC suspension for 1 h at room temperature, and then monitored for agglutination [10, 11].

[9] = tested on: influenza A/Sydney/5/97 (H3N2); experiment: in vitro; details: dog, MDCK cells
[10] = read-out: Simultaneous treatment IC50
[11] = 72 h, read-out: Simultaneous treatment IC50
[12] = Post-treatment SI (selective index; CC50mean/IC50mean), post-treatment
[13] = Simultaneous treatment SI (selective index; CC50mean/IC50mean), simultaneous treatment

## COc1cc(O)c2c(ccc3cc(O)ccc32)c1-c1c(OC)cc(O)c2c1ccc1c(OC)c(O)ccc12 [Compound 8, 4,4′,7,7′-tetrahydroxy-2,2′,8-trimethoxy-1,1′-di-phenanthrene]
[1]
  NA inhibitory activity IC50: - (key: -: Inhibitory effect on the NA was less than 50%.)
[2]
  CC50: 111 ± 17.3 µM
[3]
  Post-treatment IC50: - (The results showed that antiviral effects against A/Sydney/5/97(H3N2) were less than 50% inhibition)
  Simultaneous treatment IC50: - (The results showed that antiviral effects against A/Sydney/5/97(H3N2) were less than 50% inhibition)

## COc1cc(O)c2c(ccc3c(OC)c(O)ccc32)c1-c1c(OC)cc(O)c2c1ccc1c(OC)c(O)ccc12 [Compound 4, 4,4′,7,7′-tetrahydroxy-2,2′,8,8′-tetramethoxy-1,1′-di-phenanthrene]
[1]
  IC50: 21.7 ± 2.9 µM
[4]
  Matrix protein mRNA transcription (normalized to GAPDH): most efficient, even more powerful than oseltamivir
[2]
  CC50: 80 ± 20.1 µM
[3]
  Post-treatment SI (selective index; CC50mean/IC50mean): 4.3
  Simultaneous treatment SI (selective index; CC50mean/IC50mean): 5.5
[3]; read-out: Post-treatment IC50
  IC50: 18.4 ± 3.1 µM
[3]; [10]
  IC50: 14.6 ± 2.4 µM

## COc1cc(O)cc2ccc3cc(O)ccc3c12 [Compound 12, 2,7-dyhydroxyl-4-methoxyphenanthrene]
[1]
  NA inhibitory activity IC50: - (key: -: Inhibitory effect on the NA was less than 50%.)
[2]
  CC50: 116 ± 16.8 µM
[3]
  Post-treatment IC50: - (The results showed that antiviral effects against A/Sydney/5/97(H3N2) were less than 50% inhibition)
  Simultaneous treatment IC50: - (The results showed that antiviral effects against A/Sydney/5/97(H3N2) were less than 50% inhibition)

## 2,2′–dyhydroxyl-4,4′,7,7′-9′,10′-dihydro-1,6′-di-phenanthrene [Compound 11]
[5]; in vivo
  Inhibition (%): 0.00%
[4]
  Matrix protein mRNA transcription (normalized to GAPDH): stronger inhibitory effect
[3]; read-out: Post-treatment IC50
  IC50: 35.2 ± 3.7 µM
[3]; [10]
  IC50: 38.6 ± 2.9 µM

## CCOC(=O)C1=C[C@@H](OC(CC)CC)[C@H](NC(C)=O)[C@@H](N)C1 [Oseltamivir, reference compound]
[5]; 0.01 mmol/egg
  -log2 HA titer (mean ± SD): 0.00 ± 0.00
[5]; 0.01 mmol/egg, embryonated hen eggs, 100 EID50, 48 h
  Inhibition (%): 100.00%
[6]; [11]
  IC50: 4.9 ± 0.9 µM
[6]; read-out: Post-treatment IC50
  IC50: 0.9 ± 0.2 µM
[7]
  CC50 at 48 h: 599 ± 62.1 µM
[8]
  Inhibition of hemagglutination by the influenza virus: could not inhibit hemagglutination
[9]; [12]
  selectivity ratio at 72 h: 665
[9]; [13]
  selectivity ratio at 72 h: 122

## COc1cc(O)cc2c1-c1ccc(O)cc1CC2 [Compound 1, 2,7-dyhydroxyl-4-methoxy-9,10-dihydro-phenanthrene]
[1]
  IC50: 72.6 ± 6.5 µM
[4]
  Matrix protein mRNA transcription (normalized to GAPDH): stronger inhibitory effect
[2]
  CC50: 201 ± 18.6 µM
[3]
  Post-treatment IC50: - (The results showed that antiviral effects against A/Sydney/5/97(H3N2) were less than 50% inhibition)
  Simultaneous treatment IC50: - (The results showed that antiviral effects against A/Sydney/5/97(H3N2) were less than 50% inhibition)

## COc1ccc2c(ccc3c(-c4c(O)cc(OC)c5c4CCc4cc(O)ccc4-5)c(O)cc(OC)c32)c1 [Compound 2, 2,2,7′-trihydroxy-4,4′,7-trimethoxy-9′,10′-dihydro-1,1′-diphenanthrene]
[1]
  NA inhibitory activity IC50: - (key: -: Inhibitory effect on the NA was less than 50%.)
[4]
  Matrix protein mRNA transcription (normalized to GAPDH): stronger inhibitory effect
[2]
  CC50: 67.9 ± 13.1 µM
[3]
  Post-treatment SI (selective index; CC50mean/IC50mean): 2.2
  Simultaneous treatment SI (selective index; CC50mean/IC50mean): 2.3
[3]; read-out: Post-treatment IC50
  IC50: 31.4 ± 2.1 µM
[3]; [10]
  IC50: 28.6 ± 4.3 µM

## COc1ccc2c(ccc3c(-c4c(OC)cc(O)c5c4ccc4cc(O)ccc45)c(OC)cc(O)c32)c1 [Compound 7, 4,4′,7-trihydroxy-2,2′,7′-trimethoxy-1,1′-di-phenanthrene]
[5]; in vivo
  Inhibition (%): 0.00%
[1]
  NA inhibitory activity IC50: - (key: -: Inhibitory effect on the NA was less than 50%.)
[4]
  Matrix protein mRNA transcription (normalized to GAPDH): stronger inhibitory effect
[2]
  CC50: 130 ± 15.6 µM
[3]
  Post-treatment SI (selective index; CC50mean/IC50mean): 4.1
  Simultaneous treatment SI (selective index; CC50mean/IC50mean): 4.5
[3]; read-out: Post-treatment IC50
  IC50: 31.2 ± 2.2 µM
[3]; [10]
  IC50: 28.5 ± 2.8 µM

## COc1cc(O)c2c(c1)CCc1cccc(O)c1-2 [Compound 9, 4,5-dyhydroxyl-2-methoxy-9,10-dihydro-phenanthrene]
[1]
  NA inhibitory activity IC50: - (key: -: Inhibitory effect on the NA was less than 50%.)
[4]
  Matrix protein mRNA transcription (normalized to GAPDH): stronger inhibitory effect
[2]
  CC50: 160 ± 20.4 µM
[3]
  Post-treatment IC50: - (The results showed that antiviral effects against A/Sydney/5/97(H3N2) were less than 50% inhibition)
  Simultaneous treatment IC50: - (The results showed that antiviral effects against A/Sydney/5/97(H3N2) were less than 50% inhibition)

## COc1ccc2c(ccc3c(-c4c(O)c(OC)cc5c4CCc4cc(O)cc(OC)c4-5)c(O)cc(OC)c32)c1 [Compound 3, 2,2′,7′-trihydroxy-3′,4,5′,7-tetramethoxy-9′,10′-dihydro-1,1′-di-phenanthrene]
[1]
  IC50: 16.8 ± 1.6 µM
[4]
  Matrix protein mRNA transcription (normalized to GAPDH): stronger inhibitory effect
[2]
  CC50: 50.3 ± 6.2 µM
[3]
  Post-treatment SI (selective index; CC50mean/IC50mean): 2.2
  Simultaneous treatment SI (selective index; CC50mean/IC50mean): 2.5
[3]; read-out: Post-treatment IC50
  IC50: 22.6 ± 1.8 µM
[3]; [10]
  IC50: 20.4 ± 3.2 µM

## COc1ccc2c(ccc3cc(O)cc(OC)c32)c1 [Compound 10, 2-hydroxyl-4,7-dimethoxyphenanthrene]
[5]; 0.04 mmol/egg
  -log2 HA titer (mean ± SD): 6.00 ± 0.71
[5]; 0.04 mmol/egg, embryonated hen eggs, 100 EID50, 48 h
  Inhibition (%): 0.00%
[5]; 0.08 mmol/egg
  -log2 HA titer (mean ± SD): 3.20 ± 0.40
[5]; 0.08 mmol/egg, embryonated hen eggs, 100 EID50, 48 h
  Inhibition (%): 44.8% and 44.83%
[6]; [11]
  IC50: 43.3 ± 5.3 µM
[6]; read-out: Post-treatment IC50
  IC50: 42.3 ± 3.9 µM
[4]
  Matrix protein mRNA transcription (normalized to GAPDH): stronger inhibitory effect
[7]
  CC50 at 48 h: 142 ± 25 µM
[9]; [12]
  selectivity ratio at 72 h: 3.4
[9]; [13]
  selectivity ratio at 72 h: 3.3

## COc1cc(O)c2c(ccc3cc(O)ccc32)c1-c1c(OC)cc(O)c2c1ccc1c(OC)cccc12 [Compound 5, 4,4′,7′-trihydroxy-2,2′,8,-trimethoxy-1,1′-di-phenanthrene]
[5]; in vivo
  Inhibition (%): 0.00% and 6.90% and 3.45%
[1]
  NA inhibitory activity IC50: - (key: -: Inhibitory effect on the NA was less than 50%.)
[2]
  CC50: 96.8 ± 15.6 µM
[3]
  Post-treatment IC50: - (The results showed that antiviral effects against A/Sydney/5/97(H3N2) were less than 50% inhibition)
  Simultaneous treatment IC50: - (The results showed that antiviral effects against A/Sydney/5/97(H3N2) were less than 50% inhibition)

## COc1cc(O)c2c(ccc3cc(O)ccc32)c1-c1c(OC)cc(O)c2c1ccc1cc(O)ccc12 [Compound 6, 4,4′,7,7′-tetrahydroxy-2,2′-dimethoxy-1,1′-di-phenanthrene]
[1]
  IC50: 16.1 ± 2.6 µM
[4]
  Matrix protein mRNA transcription (normalized to GAPDH): stronger inhibitory effect
[2]
  CC50: 106 ± 21.2 µM
[3]
  Post-treatment SI (selective index; CC50mean/IC50mean): 2.8
  Simultaneous treatment SI (selective index; CC50mean/IC50mean): 3.1
[3]; read-out: Post-treatment IC50
  IC50: 37.3 ± 3.2 µM
[3]; [10]
  IC50: 33.8 ± 2.7 µM
